Experimental data as given in ChEMBL document CHEMBL4507291 (2021).

Columns and labels:
[1] = target: Cyclin-dependent kinase 7 (Homo sapiens) (UniProt P50613)
[2] = target: Aurora kinase B (Homo sapiens) (UniProt Q96GD4)
[3] = target: T1, Muscarinic acetylcholine receptor M5 (Homo sapiens) (UniProt P08912); settings: Compound concentration 10.0 uM
T1 sequence (whole entry): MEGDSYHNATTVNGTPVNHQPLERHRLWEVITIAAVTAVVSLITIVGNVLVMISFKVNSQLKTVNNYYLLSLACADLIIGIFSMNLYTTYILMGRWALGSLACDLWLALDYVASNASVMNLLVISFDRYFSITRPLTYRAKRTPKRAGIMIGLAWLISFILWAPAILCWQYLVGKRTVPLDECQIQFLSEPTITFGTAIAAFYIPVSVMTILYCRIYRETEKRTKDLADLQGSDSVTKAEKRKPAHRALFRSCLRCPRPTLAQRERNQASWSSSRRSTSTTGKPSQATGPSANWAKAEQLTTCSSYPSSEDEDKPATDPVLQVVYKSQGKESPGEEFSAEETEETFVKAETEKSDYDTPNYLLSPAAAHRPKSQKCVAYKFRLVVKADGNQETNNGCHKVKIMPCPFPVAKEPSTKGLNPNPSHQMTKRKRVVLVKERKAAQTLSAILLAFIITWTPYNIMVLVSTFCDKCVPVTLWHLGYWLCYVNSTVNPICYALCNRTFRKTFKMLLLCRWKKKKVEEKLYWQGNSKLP

[4] = target: T2, TGF-beta receptor type-1 (Homo sapiens) (UniProt P36897)
T2 sequence (whole entry): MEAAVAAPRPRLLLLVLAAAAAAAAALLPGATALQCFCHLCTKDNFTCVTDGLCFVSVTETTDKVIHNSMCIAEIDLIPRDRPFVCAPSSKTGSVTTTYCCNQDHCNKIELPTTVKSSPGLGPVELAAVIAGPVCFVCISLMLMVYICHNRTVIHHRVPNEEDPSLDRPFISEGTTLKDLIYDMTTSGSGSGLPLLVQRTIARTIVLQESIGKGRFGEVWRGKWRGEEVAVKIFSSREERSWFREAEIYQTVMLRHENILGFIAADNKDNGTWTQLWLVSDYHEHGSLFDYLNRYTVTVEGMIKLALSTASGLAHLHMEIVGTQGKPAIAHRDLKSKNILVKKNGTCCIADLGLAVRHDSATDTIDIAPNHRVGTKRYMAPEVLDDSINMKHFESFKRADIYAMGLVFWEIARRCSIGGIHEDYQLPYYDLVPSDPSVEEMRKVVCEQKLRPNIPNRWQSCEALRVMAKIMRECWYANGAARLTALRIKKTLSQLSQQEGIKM

[5] = system: Tyrosine-protein kinase ABL1 (Homo sapiens), P00519 [T315I]
[6] = target: NT-3 growth factor receptor (Homo sapiens) (UniProt Q16288)
[7] = target: Serine/threonine-protein kinase RIO2 (Homo sapiens) (UniProt Q9BVS4)
Serine/threonine-protein kinase RIO2 (Homo sapiens), sequence (Q9BVS4 whole entry, looked up): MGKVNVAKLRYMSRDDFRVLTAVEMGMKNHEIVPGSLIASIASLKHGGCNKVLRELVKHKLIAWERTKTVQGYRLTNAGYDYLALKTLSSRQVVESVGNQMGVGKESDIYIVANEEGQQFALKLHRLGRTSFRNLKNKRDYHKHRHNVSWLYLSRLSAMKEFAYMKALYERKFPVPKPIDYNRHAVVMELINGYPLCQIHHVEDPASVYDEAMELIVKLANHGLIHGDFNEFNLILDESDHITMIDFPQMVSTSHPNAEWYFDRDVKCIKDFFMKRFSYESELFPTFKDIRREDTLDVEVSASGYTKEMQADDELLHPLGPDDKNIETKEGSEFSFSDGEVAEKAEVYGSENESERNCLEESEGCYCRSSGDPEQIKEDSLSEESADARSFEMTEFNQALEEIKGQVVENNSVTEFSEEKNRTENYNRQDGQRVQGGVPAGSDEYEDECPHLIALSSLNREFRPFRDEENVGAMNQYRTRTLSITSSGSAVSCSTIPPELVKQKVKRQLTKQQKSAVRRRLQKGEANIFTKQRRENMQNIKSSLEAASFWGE

[8] = target: Homeodomain-interacting protein kinase 2 (Homo sapiens) (UniProt Q9H2X6)
Homeodomain-interacting protein kinase 2 (Homo sapiens), sequence (Q9H2X6 whole entry, looked up): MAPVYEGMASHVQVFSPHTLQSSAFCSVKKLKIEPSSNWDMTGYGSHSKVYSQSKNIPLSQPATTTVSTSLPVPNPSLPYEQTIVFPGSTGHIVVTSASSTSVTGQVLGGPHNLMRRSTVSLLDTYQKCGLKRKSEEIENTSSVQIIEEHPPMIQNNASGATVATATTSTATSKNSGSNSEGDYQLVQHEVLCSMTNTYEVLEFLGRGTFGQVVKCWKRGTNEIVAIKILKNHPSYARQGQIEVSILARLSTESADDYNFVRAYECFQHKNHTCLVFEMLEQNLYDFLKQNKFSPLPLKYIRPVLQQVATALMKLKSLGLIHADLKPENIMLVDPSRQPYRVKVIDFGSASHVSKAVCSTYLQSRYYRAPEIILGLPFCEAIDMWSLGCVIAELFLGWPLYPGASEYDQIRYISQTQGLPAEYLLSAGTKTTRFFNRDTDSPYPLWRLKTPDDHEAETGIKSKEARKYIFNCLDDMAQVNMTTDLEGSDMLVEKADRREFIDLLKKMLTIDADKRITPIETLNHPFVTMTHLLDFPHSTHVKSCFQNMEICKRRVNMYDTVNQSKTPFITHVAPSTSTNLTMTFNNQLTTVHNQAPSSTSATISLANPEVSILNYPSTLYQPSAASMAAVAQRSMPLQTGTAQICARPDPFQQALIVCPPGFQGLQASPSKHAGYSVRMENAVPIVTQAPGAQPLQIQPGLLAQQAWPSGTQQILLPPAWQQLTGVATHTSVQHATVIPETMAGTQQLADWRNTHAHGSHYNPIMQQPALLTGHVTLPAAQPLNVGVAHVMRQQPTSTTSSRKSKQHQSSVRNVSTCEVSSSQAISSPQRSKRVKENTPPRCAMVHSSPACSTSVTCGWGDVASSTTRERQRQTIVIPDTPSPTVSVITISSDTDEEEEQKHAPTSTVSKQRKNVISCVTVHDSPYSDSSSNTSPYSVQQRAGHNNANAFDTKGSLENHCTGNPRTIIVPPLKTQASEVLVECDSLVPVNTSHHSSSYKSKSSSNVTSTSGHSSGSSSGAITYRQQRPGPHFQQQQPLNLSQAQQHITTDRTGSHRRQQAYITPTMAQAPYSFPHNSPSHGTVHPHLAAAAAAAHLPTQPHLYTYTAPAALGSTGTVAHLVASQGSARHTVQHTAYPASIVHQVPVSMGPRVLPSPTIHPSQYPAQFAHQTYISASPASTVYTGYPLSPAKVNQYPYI

[9] = system: Receptor-type tyrosine-protein kinase FLT3 (Homo sapiens), P36888 [D835H]
[10] = system: Phosphatidylinositol 4,5-bisphosphate 3-kinase catalytic subunit alpha isoform (Homo sapiens), P42336 [E545K]
[11] = system: Tyrosine-protein kinase ABL1 (Homo sapiens), P00519 [Q252H]
[12] = target: Vascular endothelial growth factor receptor 2 (Homo sapiens) (UniProt P35968)
Vascular endothelial growth factor receptor 2 (Homo sapiens), sequence (P35968 whole entry): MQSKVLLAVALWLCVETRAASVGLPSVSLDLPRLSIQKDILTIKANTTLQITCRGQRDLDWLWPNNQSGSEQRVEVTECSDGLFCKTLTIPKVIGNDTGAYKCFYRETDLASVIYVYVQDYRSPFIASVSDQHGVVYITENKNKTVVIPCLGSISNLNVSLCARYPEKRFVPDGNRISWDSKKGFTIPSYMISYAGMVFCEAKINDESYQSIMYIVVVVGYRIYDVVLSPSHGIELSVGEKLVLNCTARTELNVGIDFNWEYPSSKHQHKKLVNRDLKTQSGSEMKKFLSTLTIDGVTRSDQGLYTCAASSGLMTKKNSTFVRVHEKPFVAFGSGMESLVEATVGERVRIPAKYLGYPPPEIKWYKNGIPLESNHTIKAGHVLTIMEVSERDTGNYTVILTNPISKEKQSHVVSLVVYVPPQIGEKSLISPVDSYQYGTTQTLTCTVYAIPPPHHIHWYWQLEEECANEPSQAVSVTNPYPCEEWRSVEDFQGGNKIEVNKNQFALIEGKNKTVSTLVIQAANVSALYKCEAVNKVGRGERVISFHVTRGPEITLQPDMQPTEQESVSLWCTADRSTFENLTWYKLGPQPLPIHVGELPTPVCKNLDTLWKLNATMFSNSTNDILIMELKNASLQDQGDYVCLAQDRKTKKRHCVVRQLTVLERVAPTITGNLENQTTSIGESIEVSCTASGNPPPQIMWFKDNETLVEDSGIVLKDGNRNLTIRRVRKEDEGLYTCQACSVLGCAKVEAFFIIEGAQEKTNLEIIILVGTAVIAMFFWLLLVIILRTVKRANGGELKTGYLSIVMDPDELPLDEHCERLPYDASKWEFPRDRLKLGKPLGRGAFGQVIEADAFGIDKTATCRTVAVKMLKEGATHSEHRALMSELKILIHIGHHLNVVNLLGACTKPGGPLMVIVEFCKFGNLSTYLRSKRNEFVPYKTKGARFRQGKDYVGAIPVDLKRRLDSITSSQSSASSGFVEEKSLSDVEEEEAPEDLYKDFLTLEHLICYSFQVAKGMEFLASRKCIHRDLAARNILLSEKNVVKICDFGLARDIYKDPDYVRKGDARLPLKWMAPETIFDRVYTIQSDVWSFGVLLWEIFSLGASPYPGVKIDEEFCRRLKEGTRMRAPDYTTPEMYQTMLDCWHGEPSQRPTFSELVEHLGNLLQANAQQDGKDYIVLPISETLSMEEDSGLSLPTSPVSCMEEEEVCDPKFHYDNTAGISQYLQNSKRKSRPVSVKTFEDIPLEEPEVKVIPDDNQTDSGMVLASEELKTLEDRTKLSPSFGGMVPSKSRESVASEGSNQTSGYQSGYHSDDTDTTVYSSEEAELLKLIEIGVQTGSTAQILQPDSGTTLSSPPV

[13] = system: Receptor-type tyrosine-protein kinase FLT3 (Homo sapiens), P36888 [UNDEFINED MUTATION]
[14] = target: Mitogen-activated protein kinase kinase kinase 11 (Homo sapiens) (UniProt Q16584)
[15] = target: Dual specificity mitogen-activated protein kinase kinase 1 (Homo sapiens) (UniProt Q02750)
[16] = system: Tyrosine-protein kinase ABL1 (Homo sapiens), P00519 [F317L]
[17] = target: Serine/threonine-protein kinase ULK3 (Homo sapiens) (UniProt Q6PHR2)
[18] = target: Tyrosine-protein kinase Yes (Homo sapiens) (UniProt P07947)
Tyrosine-protein kinase Yes (Homo sapiens), sequence (P07947 2-543 limits assumed): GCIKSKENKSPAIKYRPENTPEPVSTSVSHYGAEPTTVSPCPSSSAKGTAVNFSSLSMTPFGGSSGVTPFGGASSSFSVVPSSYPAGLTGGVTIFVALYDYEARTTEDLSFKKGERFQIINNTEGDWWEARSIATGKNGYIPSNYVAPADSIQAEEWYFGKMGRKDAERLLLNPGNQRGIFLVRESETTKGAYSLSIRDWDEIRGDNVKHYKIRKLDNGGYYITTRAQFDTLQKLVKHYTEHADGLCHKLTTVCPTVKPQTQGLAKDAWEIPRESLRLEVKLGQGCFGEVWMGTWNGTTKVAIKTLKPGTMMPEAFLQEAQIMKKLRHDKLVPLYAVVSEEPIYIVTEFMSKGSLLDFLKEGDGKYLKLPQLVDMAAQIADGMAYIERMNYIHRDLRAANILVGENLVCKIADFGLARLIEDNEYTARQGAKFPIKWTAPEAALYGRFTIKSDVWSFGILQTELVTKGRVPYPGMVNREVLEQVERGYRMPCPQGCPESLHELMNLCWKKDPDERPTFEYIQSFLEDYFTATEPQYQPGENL

[19] = target: T3, Aurora kinase C (Homo sapiens) (UniProt Q9UQB9)
T3 sequence (whole entry): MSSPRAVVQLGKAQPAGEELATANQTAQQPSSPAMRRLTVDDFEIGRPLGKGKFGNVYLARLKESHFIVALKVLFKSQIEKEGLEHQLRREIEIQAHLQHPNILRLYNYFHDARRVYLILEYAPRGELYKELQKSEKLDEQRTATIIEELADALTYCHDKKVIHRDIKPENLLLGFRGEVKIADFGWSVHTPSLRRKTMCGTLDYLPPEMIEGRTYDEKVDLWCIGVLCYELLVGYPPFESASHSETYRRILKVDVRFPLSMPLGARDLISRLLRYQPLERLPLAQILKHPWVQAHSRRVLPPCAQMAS

[20] = target: Serine/threonine-protein kinase LATS2 (Homo sapiens) (UniProt Q9NRM7)
Serine/threonine-protein kinase LATS2 (Homo sapiens), sequence (Q9NRM7 whole entry): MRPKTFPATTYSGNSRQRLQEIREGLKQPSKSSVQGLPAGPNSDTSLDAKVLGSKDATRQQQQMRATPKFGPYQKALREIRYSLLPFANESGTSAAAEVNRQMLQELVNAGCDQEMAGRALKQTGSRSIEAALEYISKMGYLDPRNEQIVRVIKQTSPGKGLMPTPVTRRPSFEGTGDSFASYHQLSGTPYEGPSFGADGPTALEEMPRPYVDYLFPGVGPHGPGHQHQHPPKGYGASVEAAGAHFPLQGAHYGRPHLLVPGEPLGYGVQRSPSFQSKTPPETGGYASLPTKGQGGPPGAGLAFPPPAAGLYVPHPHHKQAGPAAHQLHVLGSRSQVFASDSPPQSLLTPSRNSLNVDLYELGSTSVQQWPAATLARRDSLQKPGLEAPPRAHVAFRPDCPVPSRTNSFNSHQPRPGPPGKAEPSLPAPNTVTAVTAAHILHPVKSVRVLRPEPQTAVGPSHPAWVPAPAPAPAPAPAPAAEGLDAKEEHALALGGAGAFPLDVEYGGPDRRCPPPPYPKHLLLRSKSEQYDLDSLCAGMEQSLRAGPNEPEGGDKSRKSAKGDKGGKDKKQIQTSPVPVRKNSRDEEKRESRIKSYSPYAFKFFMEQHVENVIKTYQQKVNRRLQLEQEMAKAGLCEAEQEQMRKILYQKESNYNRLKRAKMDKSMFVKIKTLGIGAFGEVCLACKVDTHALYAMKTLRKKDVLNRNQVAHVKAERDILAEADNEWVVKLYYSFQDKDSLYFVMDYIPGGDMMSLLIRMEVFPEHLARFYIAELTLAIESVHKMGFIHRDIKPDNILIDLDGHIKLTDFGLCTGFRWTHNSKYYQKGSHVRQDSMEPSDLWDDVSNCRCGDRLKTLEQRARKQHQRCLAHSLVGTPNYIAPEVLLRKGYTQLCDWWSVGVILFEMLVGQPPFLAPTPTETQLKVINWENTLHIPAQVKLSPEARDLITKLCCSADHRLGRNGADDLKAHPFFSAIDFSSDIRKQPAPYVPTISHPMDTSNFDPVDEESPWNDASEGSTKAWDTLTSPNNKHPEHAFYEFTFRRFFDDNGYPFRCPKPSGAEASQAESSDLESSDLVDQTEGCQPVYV

[21] = target: Protein-tyrosine kinase 6 (Homo sapiens) (UniProt Q13882)
[22] = Compound concentration 100.0 nM
[23] = Compound concentration 1000.0 nM

Cyclin-dependent kinase 7 (Homo sapiens), sequence (P50613 whole entry): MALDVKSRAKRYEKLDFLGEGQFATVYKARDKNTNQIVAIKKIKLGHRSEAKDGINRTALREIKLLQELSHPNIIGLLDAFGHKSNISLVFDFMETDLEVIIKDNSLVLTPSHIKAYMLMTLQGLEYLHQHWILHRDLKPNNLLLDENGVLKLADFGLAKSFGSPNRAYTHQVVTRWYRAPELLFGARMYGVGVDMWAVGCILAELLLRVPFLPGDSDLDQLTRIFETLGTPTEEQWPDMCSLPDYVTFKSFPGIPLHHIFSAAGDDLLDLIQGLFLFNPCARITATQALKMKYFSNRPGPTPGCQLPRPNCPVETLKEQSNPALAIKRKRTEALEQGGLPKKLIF

C[C@@H]1CN(c2cc(-c3n[nH]c4ccc(OC5(C)CC5)cc34)ncn2)C[C@H](C)O1 [MLi-2]
inactive: residual activity [1, 22] 56% | residual activity [2, 22] 73% | inhibition [3] 1% | residual activity [4, 22] 100% | residual activity [5, 22] 72% | residual activity [6, 22] 86% | residual activity [7, 22] 68% | residual activity [8, 22] 80% | residual activity [9, 22] 100% | residual activity [10, 22] 65% | residual activity [11, 22] 100% | residual activity [12, 22] 82% | residual activity [13, 22] 75% | residual activity [14, 22] 100% | residual activity [15, 22] 88% | residual activity [16, 22] 82% | residual activity [17, 22] 78% | residual activity [18, 22] 80% | residual activity [19, 22] 100% | residual activity [20, 22] 68% | residual activity [21, 22] 100%

C[C@@H]1CN(c2cc(-c3nn(C)c4ccc(OC5(C)CC5)cc34)ncn2)C[C@H](C)O1 [MLi-2-NC]
inactive: residual activity [1, 23] 100% | residual activity [2, 23] 94% | inhibition [3] 2.87% | residual activity [4, 23] 89% | residual activity [5, 23] 73% | residual activity [6, 23] 65% | residual activity [7, 23] 100% | residual activity [8, 23] 74% | residual activity [9, 23] 84% | residual activity [10, 23] 79% | residual activity [11, 23] 93% | residual activity [12, 23] 75% | residual activity [13, 23] 88% | residual activity [14, 23] 100% | residual activity [15, 23] 74% | residual activity [16, 23] 86% | residual activity [17, 23] 67% | residual activity [18, 23] 98% | residual activity [19, 23] 100% | residual activity [20, 23] 58% | residual activity [21, 23] 92%
